Assay results reported in ChEMBL document CHEMBL1133385, “The de novo design and synthesis of cyclic urea inhibitors of factor Xa: optimization of the S4 ligand” (Bioorg Med Chem Lett, 2000).

Experiments:
[1] = Half life period was determined; conditions: rabbit
Serine protease 1 = Serine protease 1 (Homo sapiens, UniProt P07477); assay: Inhibitory activity against trypsin
[2] = Plasma clearance was determined in rabbit at a dose of 5 mg/kg/h administered i.v.; format: ADME, organism-based, Oryctolagus cuniculus; set-up: route intravenous; conditions: iv
Coagulation factor X = Coagulation factor X (Homo sapiens, UniProt P00742); assay: Inhibition of coagulation factor Xa
Coagulation factor X, sequence (P00742 41-179 limits assumed): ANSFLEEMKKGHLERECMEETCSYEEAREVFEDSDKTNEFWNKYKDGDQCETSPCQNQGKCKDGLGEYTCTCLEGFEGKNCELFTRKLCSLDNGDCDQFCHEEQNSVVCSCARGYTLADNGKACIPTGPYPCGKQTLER
Coagulation factor X, sequence (P00742 235-488 limits assumed): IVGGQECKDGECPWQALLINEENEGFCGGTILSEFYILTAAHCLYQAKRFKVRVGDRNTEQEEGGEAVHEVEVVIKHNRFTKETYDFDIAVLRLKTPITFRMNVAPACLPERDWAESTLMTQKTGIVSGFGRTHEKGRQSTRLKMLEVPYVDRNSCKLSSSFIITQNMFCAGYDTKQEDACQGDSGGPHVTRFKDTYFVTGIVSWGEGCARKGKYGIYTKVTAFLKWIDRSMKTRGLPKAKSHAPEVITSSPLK

[3] = Maximum plasma concentration was determined in rabbit at a dose of 5 mg/kg/h administered i.v.; format: ADME, organism-based, Oryctolagus cuniculus; set-up: dose 5 mg/kg/h, route intravenous; conditions: iv
Prothrombin = Prothrombin (Homo sapiens, UniProt P00734); assay: Inhibitory activity against thrombin
[4] = The compound was evaluated for volume of distribution in rabbit at a dose of 5 mg/kg/h administered i.v.; format: ADME, organism-based, Oryctolagus cuniculus; set-up: route intravenous; conditions: in vivo, iv

Serine protease 1, sequence (P07477 whole entry): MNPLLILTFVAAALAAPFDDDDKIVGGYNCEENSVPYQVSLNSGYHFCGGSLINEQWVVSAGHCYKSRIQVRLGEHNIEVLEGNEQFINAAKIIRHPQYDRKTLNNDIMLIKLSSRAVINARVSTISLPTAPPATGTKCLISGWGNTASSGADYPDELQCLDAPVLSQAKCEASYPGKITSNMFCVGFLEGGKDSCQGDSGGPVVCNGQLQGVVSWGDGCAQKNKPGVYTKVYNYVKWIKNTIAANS

| Compound | half-life [1] | Ki (Serine protease 1) | clearance [2] | Ki (Coagulation factor X) | Cmax [3] | Ki (Prothrombin) | Vd [4] |
| --- | --- | --- | --- | --- | --- | --- | --- |
| N=C(N)c1cccc(N2CCCCN(C3CCN(S(=O)(=O)Cc4ccccc4)CC3)C2=O)c1.O=C(O)C(F)(F)F | 2.4 min | 80 nM | 68.3 mL/min/kg | 10 nM | 4.8 µM | 500 nM | 0.23 L/kg |
| N=C(N)c1cccc(N2CCCCN(C3CCN(S(=O)(=O)c4ccccc4N)CC3)C2=O)c1 | – | 130 nM | – | 34 nM | – | 2400 nM | – |
| N=C(N)c1cccc(N2CCCCN(C3CCN(S(=O)(=O)Cc4ccccn4)CC3)C2=O)c1.O=C(O)C(F)(F)F.O=C(O)C(F)(F)F | 1.8 min | 57 nM | 132 mL/min/kg | 10 nM | 2.4 µM | 500 nM | 0.34 L/kg |
| N=C(N)c1cccc(N2CCCCN(C3CCN(S(=O)(=O)c4ccc(N)cc4)CC3)C2=O)c1 | – | 190 nM | – | 71 nM | – | 6300 nM | – |
| N=C(N)c1cccc(N2CCCCN(C3CCN(S(=O)(=O)c4cccc(N)c4)CC3)C2=O)c1 | – | – | – | 200 nM | – | 2200 nM | – |
| N=C(N)c1cccc(N2CCCCN(C3CCN(Cc4cccs4)CC3)C2=O)c1 | – | 170 nM | – | 80 nM | – | 1400 nM | – |
| Cl.N=C(N)c1cccc(N2CCCCN(C3CCN(S(=O)(=O)c4cccs4)CC3)C2=O)c1 | 66 min | 52 nM | 11.3 mL/min/kg | 12 nM | 36 µM | 1500 nM | 1.1 L/kg |

The remaining lines, values ahead:

| half-life [1] | Ki (Serine protease 1) | clearance [2] | Ki (Coagulation factor X) | Cmax [3] | Ki (Prothrombin) | Vd [4] | Compound |
| --- | --- | --- | --- | --- | --- | --- | --- |
| – | – | – | 200 nM | – | 6800 nM | – | N=C(N)c1cccc(N2CCCCN(C3CCN(Cc4ccncc4)CC3)C2=O)c1 |
| – | – | – | 900 nM | – | 11800 nM | – | N=C(N)c1cccc(N2CCCCN(C3CCN(C(=O)Cc4ccccc4)CC3)C2=O)c1 |
| – | 1000 nM | – | 220 nM | – | 3600 nM | – | N=C(N)c1cccc(N2CCCCN(C3CCN(CCc4ccccc4)CC3)C2=O)c1 |
| – | – | – | 670 nM | – | 5300 nM | – | N=C(N)c1cccc(N2CCCCN(C3CCN(Cc4cccnc4)CC3)C2=O)c1 |
| – | 60 nM | – | 24 nM | – | 1600 nM | – | N=C(N)c1cccc(N2CCCCN(C3CCN(S(=O)(=O)c4ccccc4)CC3)C2=O)c1 |
| – | – | – | – | – | > 21000 nM | – | N=C(N)c1cccc(N2CCCCN(C3CCN(C(=O)c4ccccc4)CC3)C2=O)c1 |
| – | 120 nM | – | 12 nM | – | 2600 nM | – | N=C(N)c1cccc(N2CCCCN(C3CCN(Cc4ccccn4)CC3)C2=O)c1 |
